The source of these data is PubChem BioAssay (NCI).

SMILES strings stand for the structures.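 Exposure lasted 48 hours, with cells grown in 96-well plates and compounds tested at five concentrations. TGI marks complete inhibition of growth.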

Common to all, as to assay: NCI anticancer screen, dose series, 48 h
Experiment [1] concerns MALME-3M melanoma.
Experiment [2] concerns ACHN renal.
Experiment [3] has as its system IGROV1 ovarian.
The test system of experiment [4] is HCC-2998 colon.
The test system of experiment [5] is U251 CNS.
In experiment [6] the test system is SK-MEL-2 melanoma.
Experiment [7] concerns MDA-MB-231 breast.
Experiment [8] deals with HCT-15 colon.
Experiment [9] concerns CAKI-1 renal.
For experiment [10], the system named is OVCAR-8 ovarian.
Experiment [11] concerns PC-3 prostate.
Experiment [12] concerns A498 renal.
For experiment [13], the system named is K-562 leukemia.
In experiment [14] the test system is UACC-62 melanoma.
For experiment [15], the system named is SNB-75 CNS.
Experiment [16] concerns NCI/ADR-RES ovarian.
Experiment [17] has as its system EKVX NSCLC.

As to `COc1ccc(O[C@H](COCc2ccccc2)C[C@@H]2COC(C)(C)O2)cc1`, the TGI in [1], in [2], in experiment [3], in experiment [4], in experiment [5] and in experiment [6] was over 100 µM each time. Besides, the TGI in experiment [7], in [8], in [9], in experiment [10], in [11] and in experiment [12] was over 100 µM throughout. In addition, the TGI in experiment [13], in experiment [14], in [15], in [16] and in experiment [17] was over 100 µM in each case.
Turning to `O=C1C(NCCc2ccc(O)c(O)c2)=CC(=O)c2ncccc21`, the TGI in experiment [1] is 18.4 µM; in experiment [2], 33.5 µM; in [3], 27.2 µM; in [4] it was 27.8 µM; in experiment [5], 12.8 µM; in experiment [6], 21.5 µM. Moreover, the TGI in experiment [7] is 16.1 µM; in [8], 55.7 µM; in [9], 21.5 µM; in [10], 57.3 µM; in [11] it was over 100 µM; in experiment [12], 46.7 µM. In addition, the TGI was 20.2 µM in experiment [13]; 22.5 µM in experiment [14]; 29.4 µM in [15]; 25.1 µM in experiment [16]; 52 µM in experiment [17].
On to `CC12CCC(C(=O)O1)C(C)(C)O2` (centres undefined), for which the TGI in experiment [1], in experiment [2], in experiment [3], in [4], in [5] and in experiment [6] was over 100 µM in each case. The TGI in experiment [7], in experiment [8], in experiment [9], in [10], in experiment [11] and in experiment [12] was over 100 µM each time. Also, the TGI in experiment [13], in experiment [14], in experiment [15], in experiment [16] and in experiment [17] was over 100 µM throughout.
As to `NC(=O)c1nnc2cc(F)ccc2c1N`, the TGI in experiment [1], in experiment [2], in [3], in [4], in [5] and in experiment [6] was over 100 µM throughout. Moreover, the TGI in [7], in experiment [8], in experiment [9], in [10], in experiment [11] and in experiment [12] was over 100 µM throughout. Besides, the TGI in experiment [13], in experiment [14], in [15], in [16] and in experiment [17] was over 100 µM in each case.
On to `COC1=C(N=[N+]=[N-])C(=O)c2ncccc2C1=O`, for which the TGI was 5.03 µM in experiment [1]; 15 µM in experiment [2]; 13.1 µM in experiment [3]; 31 µM in [4]; 27.7 µM in experiment [5]; 37.5 µM in [6]. Further, the TGI amounted to 25 µM in experiment [7]; 20.4 µM in experiment [8]; 13.3 µM in experiment [9]; 7.56 µM in experiment [10]; 29 µM in [11]; 30.9 µM in experiment [12]. In addition, the TGI amounted to 15.2 µM in [13]; 20.8 µM in experiment [14]; 26 µM in experiment [15]; 25.6 µM in experiment [16]; 17.3 µM in experiment [17].
As for `O=C1/C(=C\c2cccc(Oc3ccccc3)c2)S(=O)(=O)C(c2ccccc2)N1c1ccccc1Cl` (centres undefined), the TGI in experiment [1], in [2], in experiment [3], in experiment [4], in experiment [5] and in experiment [6] was over 100 µM throughout. The TGI in experiment [7], in [8], in experiment [9], in [10], in [11] and in experiment [12] was over 100 µM each time. Further, the TGI in experiment [13] was 64.2 µM; in experiment [14], 94.8 µM; in experiment [15], 74.5 µM; in experiment [16], over 100 µM; in experiment [17] it was 92.2 µM.
As for `Cc1ccc(N=Nc2c(O)ccc3cc(S(=O)(=O)O)ccc23)c(C)c1`, the TGI in experiment [1], in experiment [2], in experiment [3], in experiment [4], in [5] and in [6] was over 100 µM throughout. Further, the TGI in experiment [7], in experiment [8], in [9], in experiment [10], in experiment [11] and in experiment [12] was over 100 µM each time. Also, the TGI in [13], in [14], in [15], in experiment [16] and in [17] was over 100 µM in each case.
For the compound `CCOC(=O)/C(=C\c1ccc(N(C)C)cc1)S(=O)(=O)C(F)(F)C(F)(F)C(F)(F)C(F)(F)F`, the TGI in experiment [1], in experiment [2], in experiment [3], in experiment [4], in experiment [5] and in [6] was over 100 µM each time. For the same compound, the TGI in [7], in experiment [8], in experiment [9], in [10], in experiment [11] and in experiment [12] was over 100 µM in each case. The TGI in experiment [13], in experiment [14], in experiment [15], in experiment [16] and in experiment [17] was over 100 µM in each case.
`O=C(Nc1c[nH]c(=O)[nH]c1=O)C(Cl)Cl`: the TGI in [1], in experiment [2], in experiment [3], in experiment [4], in experiment [5] and in experiment [6] was over 100 µM in each case. Also, the TGI in experiment [7], in experiment [8], in [9], in experiment [10], in experiment [11] and in experiment [12] was over 100 µM throughout. Also, the TGI in [13], in experiment [14], in experiment [15], in experiment [16] and in experiment [17] was over 100 µM in each case.
Consider `O=C1Sc2ccc(Br)cc2C(=O)Sc2ccccc21`, for which the TGI in [1] turned out to be 23.6 µM; in experiment [2] it was 32.8 µM; in experiment [3], 31.6 µM; in experiment [4] it was 29.6 µM; in experiment [5], 27.6 µM; in [6], 36.6 µM. For the same compound, the TGI in experiment [7] was 31.7 µM; in experiment [8], 46.5 µM; in [9], 29.4 µM; in experiment [10], 24 µM; in [11] it was 26.1 µM; in experiment [12], 43.6 µM. For the same compound, the TGI in [13] was over 59.3 µM; in experiment [14] it was 31.8 µM; in experiment [15] it was 26.1 µM; in [16], 60 µM; in experiment [17] it was 22.2 µM.
For the compound `COc1ccc2[nH]c(Cl)c(/C=C3/C(=O)Nc4cc(C)c(OC)cc43)c2c1`, the TGI in experiment [1] amounted to 18.2 µM; in experiment [2] it was 21.4 µM; in experiment [3], 17.1 µM; in experiment [4], 17.2 µM; in experiment [5] it was 18 µM; in experiment [6], 7.8 µM. In addition, the TGI amounted to 20.6 µM in experiment [7]; 12.9 µM in experiment [8]; 21.7 µM in experiment [9]; 25.7 µM in experiment [10]; 16.1 µM in experiment [11]; 19.2 µM in [12]. For the same compound, the TGI in experiment [13] was over 100 µM; in experiment [14], 15.2 µM; in experiment [15], 23.4 µM; in [16], 6.47 µM; in [17] it was 22.7 µM.
For the compound `Cc1cc(CNC(=O)OCc2ccccc2)c(C)c2c1Oc1ccccc1O2`, the TGI in experiment [1] is over 100 µM; in experiment [2], over 100 µM; in experiment [3], over 100 µM; in [4] it was over 100 µM; in experiment [5], over 67.3 µM; in experiment [6], over 27.3 µM. Besides, the TGI in experiment [7] is over 60.5 µM; in experiment [8], over 100 µM; in [9], over 87.5 µM; in [10], 58.5 µM; in experiment [11] it was over 100 µM; in experiment [12] it was 74.7 µM. Moreover, the TGI is over 100 µM in experiment [13]; over 100 µM in experiment [14]; 36.3 µM in experiment [15]; over 71.4 µM in [16]; over 100 µM in [17].
For the compound `COC(=O)C(C)(N=Cc1ccccc1)c1ccccc1` (centres undefined), the TGI in experiment [1], in [2], in experiment [3], in experiment [4], in experiment [5] and in experiment [6] was over 100 µM each time. Also, the TGI in experiment [7], in experiment [8], in experiment [9], in [10], in experiment [11] and in experiment [12] was over 100 µM each time. The TGI in experiment [13], in experiment [14], in experiment [15], in experiment [16] and in experiment [17] was over 100 µM in each case.
In the case of `Clc1cc2c(c(CSC3=NCN(CC4CC4)CN3)c1)OCOC2`, the TGI in experiment [1] is 34.2 µM; in experiment [2], 45.6 µM; in experiment [3] it was over 100 µM; in [4], 28.4 µM; in experiment [5], 53.1 µM; in experiment [6], 35.4 µM. Also, the TGI is 48 µM in experiment [7]; over 100 µM in [8]; over 100 µM in [9]; over 100 µM in [10]; 65.8 µM in experiment [11]; 58.2 µM in experiment [12]. Besides, the TGI is over 100 µM in experiment [13]; 35.3 µM in [14]; 39.6 µM in experiment [15]; 72.9 µM in experiment [16]; 53.4 µM in [17].
As to `O=C(/C=C/c1cccc(Br)c1)c1cccs1`, the TGI in [1] is 41.6 µM; in experiment [2] it was 39.8 µM; in experiment [3], 36.6 µM; in [4], 61.3 µM; in [5], 26.8 µM; in experiment [6] it was 44.1 µM. Further, the TGI in experiment [7] turned out to be 38.8 µM; in [8], 35.8 µM; in [9], 32.6 µM; in experiment [10], 37.6 µM; in [11] it was 31.6 µM; in experiment [12] it was 33.2 µM. Moreover, the TGI amounted to 16.6 µM in experiment [13]; 32.7 µM in [14]; 28.2 µM in experiment [15]; 56.9 µM in experiment [16]; 37.4 µM in [17].
As for `COc1cc(OC)c2c(O)c3c(cc2c1)CC(C)(C)CC3=O`, the TGI in experiment [1], in [2], in [3], in experiment [4], in experiment [5] and in experiment [6] was over 100 µM in each case. Also, the TGI in experiment [7], in experiment [8], in experiment [9], in [10], in [11] and in experiment [12] was over 100 µM in each case. Besides, the TGI in experiment [13], in [14], in [15], in experiment [16] and in experiment [17] was over 100 µM in each case.
As for `O=C1CSC(/C(=C\c2ccc(Cl)cc2)c2nc3ccccc3[nH]2)=N1`, the TGI in [1] amounted to 31.6 µM; in experiment [2] it was 19 µM; in experiment [3] it was 22.4 µM; in experiment [4], 17.7 µM; in [5] it was 25.6 µM; in [6] it was 34.5 µM. In addition, the TGI was 28.3 µM in experiment [7]; 52.4 µM in experiment [8]; 21.5 µM in [9]; 32 µM in experiment [10]; 36.5 µM in [11]; 16 µM in [12]. In addition, the TGI is over 100 µM in [13]; 33.5 µM in experiment [14]; 28.8 µM in experiment [15]; 36.9 µM in [16]; 32.2 µM in experiment [17].
